In data set [1] the test system is Yersinia pestis. As to the kind of experiment: Ratio of MIC90 for Yersinia pestis KIM6-2082.1+ in iron rich PMH-D medium to MIC90 for Yersinia pestis KIM6-2082.1+ in presence of iron limiting PMH-D medium. The format is functional.
For data set [2], the target named is T1, AMP-binding enzyme family protein (Yersinia pestis, UniProt Q56950).
T1 sequence (Q56950 whole entry): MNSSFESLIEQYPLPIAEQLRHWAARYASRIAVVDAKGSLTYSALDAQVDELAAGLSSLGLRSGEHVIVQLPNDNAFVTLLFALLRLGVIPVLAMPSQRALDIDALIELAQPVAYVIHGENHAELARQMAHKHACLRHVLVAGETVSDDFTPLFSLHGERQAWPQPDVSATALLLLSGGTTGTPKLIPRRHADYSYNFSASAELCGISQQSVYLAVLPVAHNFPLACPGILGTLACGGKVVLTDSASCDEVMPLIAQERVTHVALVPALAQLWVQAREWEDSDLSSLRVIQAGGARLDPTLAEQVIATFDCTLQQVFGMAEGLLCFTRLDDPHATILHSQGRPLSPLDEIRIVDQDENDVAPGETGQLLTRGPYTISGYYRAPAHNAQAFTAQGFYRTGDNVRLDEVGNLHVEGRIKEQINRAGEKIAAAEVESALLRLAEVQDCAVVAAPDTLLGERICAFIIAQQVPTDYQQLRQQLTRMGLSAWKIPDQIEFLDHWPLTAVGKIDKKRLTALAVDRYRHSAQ
Nature of the data set: Inhibition of Yersinia pestis YbtE assessed as incorporation of [3H]salicyl group to HMWP2 protein.

The test system of data set [3] is Mycobacterium tuberculosis. Nature of the data set: Antimycobacterial activity against Mycobacterium tuberculosis H37Rv in presence of iron deficient GAST-D medium. The format is functional, organism-based.
Data set [4] relates to Mycobacterium tuberculosis. Nature of the data set: Ratio of MIC90 for Mycobacterium tuberculosis H37Rv in iron rich GAST-D medium to MIC90 for Mycobacterium tuberculosis H37Rv in presence of iron limiting GAST-D medium. The format is functional.
For data set [5], the system named is Yersinia pestis. As to the kind of experiment: Antimicrobial activity against Yersinia pestis KIM6-2082.1+ in presence of iron limiting PMH-D medium. The format is functional, organism-based.
The subject of data set [6] is Mycobacterium tuberculosis. Nature of the data set: Antimycobacterial activity against Mycobacterium tuberculosis H37Rv in presence of iron rich GAST-D medium. The format is functional, organism-based.
Data set [7] can be described thus: Cytotoxicity against human HeLa cells after 24 hrs. The format is cell-based. The note with it: read-out: CD50.
The subject of data set [8] is Yersinia pestis. Nature of the data set: Antimicrobial activity against Yersinia pestis KIM6-2082.1+ in presence of iron rich PMH-D medium. The format is functional, organism-based.

pIC50: −log10 of the molar value. Bounds are passed on as bounds.

One may read the pIC50 as −log10 of the IC50, conventionally taken in molar units. Usually MIC90 stands for the lowest concentration that inhibits either 90% of growth or 90% of the strains tested, depending on the study.

Turning to `Cc1ccccc1NC(=S)N1N=C(c2ccccc2O)C[C@H]1c1ccc(O)cc1`, the values for the Ratio (with Yersinia pestis [1]; in data set [4]) were greater than 4 and 7, respectively. Besides, the pIC50 in data set [2] was 6.15; in data set [3], 4.54; with Yersinia pestis [5], 5.52; in data set [6], 4.08; with Yersinia pestis [8], less than 4.72. Besides, the MIC90 is 63 µM in data set [3], 5 µM with Yersinia pestis [5], 417 µM in data set [6] and greater than 19 µM in the data set on Yersinia pestis [8]. The CC50 at 24 h in data set [7] is 21 µM.

As for `COc1cc([C@@H]2CC(c3ccc(O)cc3O)=NN2C(=S)Nc2ccccc2)ccc1O`, the Ratio in the data set with Yersinia pestis [1] is given as greater than 75; in data set [4], greater than 4. In addition, the negative logarithm of the IC50 (pIC50) in data set [2] was 6.15; in data set [3], 4.08; in the data set on Yersinia pestis [5], 6.22; in data set [6], 3.48; in the data set on Yersinia pestis [8], less than 3.82. For the same compound, the MIC90 in data set [3] was 125 µM; in the data set on Yersinia pestis [5] it was 2 µM; in data set [6], greater than 500 µM; in the data set on Yersinia pestis [8] it was greater than 150 µM. The CC50 at 24 h in data set [7] was found to be 30 µM.

Regarding `Cc1ccccc1NC(=S)N1N=C(c2ccccc2O)C[C@H]1c1ccccc1O`, the Ratio in the data set on Yersinia pestis [1] was greater than 4; in data set [4], greater than 5. The pIC50 in data set [2] was 6.00; in data set [3], 4.55; with Yersinia pestis [5], 5.70; in data set [6], 4.38; in the data set on Yersinia pestis [8], less than 4.72. For the same compound, the MIC90 in data set [3] is 104 µM; in the data set on Yersinia pestis [5] it was 5 µM; in data set [6] it was greater than 500 µM; in the data set on Yersinia pestis [8], greater than 19 µM. Further, in data set [7], the CC50 at 24 h turned out to be 17 µM.

For the compound `Cc1ccc(NC(=S)N2N=C(c3ccccc3O)C[C@H]2c2ccccc2O)cc1`, the Ratio in the data set with Yersinia pestis [1] is recorded as greater than 5; in data set [4], greater than 4. The pIC50 is 6.30 in data set [2]; 4.57 in data set [3]; 6.10 in the data set with Yersinia pestis [5]; 3.68 in data set [6]; less than 5.05 in the data set with Yersinia pestis [8]. Further, the MIC90 in data set [3] was 63 µM; with Yersinia pestis [5], 2 µM; in data set [6], greater than 250 µM; in the data set with Yersinia pestis [8] it was greater than 9 µM. Also, the CC50 at 24 h in data set [7] was determined as 11 µM.

On to `COc1cc([C@@H]2CC(c3ccccc3O)=NN2C(=S)Nc2ccccc2C)ccc1O`, for which the figures for the Ratio (in the data set with Yersinia pestis [1]; in data set [4]) were greater than 2 and greater than 1, respectively. The pIC50 in data set [2] was 6.00; in data set [3], 4.00; in the data set on Yersinia pestis [5], 5.52; in data set [6], 4.02; in the data set with Yersinia pestis [8] it was less than 4.72. Moreover, the MIC90 in data set [3] was 417 µM; in the data set on Yersinia pestis [5] it was 9 µM; in data set [6], greater than 500 µM; in the data set with Yersinia pestis [8] it was greater than 19 µM. The CC50 at 24 h in data set [7] turned out to be 15 µM.

Turning to `Oc1ccccc1C1=NN(C(=S)Nc2ccccc2)[C@H](c2ccccc2O)C1`, the Ratio is given as greater than 10 in the data set with Yersinia pestis [1] and 1 in data set [4]. In addition, the pIC50 is 6.22 in data set [2]; 4.54 in data set [3]; 6.15 with Yersinia pestis [5]; 4.19 in data set [6]; less than 4.72 in the data set with Yersinia pestis [8]. Besides, the MIC90 was 83 µM in data set [3], 2 µM in the data set with Yersinia pestis [5], 100 µM in data set [6] and greater than 19 µM in the data set on Yersinia pestis [8]. Besides, the CC50 at 24 h in data set [7] came out at 3 µM.

Regarding `NC(=S)N1N=C(c2ccccc2O)C[C@H]1c1ccc(O)cc1`, the pIC50 in data set [2] is 6.30; in data set [3], 5.10; with Yersinia pestis [5], less than 4.42; in data set [6], 3.90; in the data set with Yersinia pestis [8] it was less than 4.42. Also, the MIC90 in data set [3] was 21 µM; in the data set with Yersinia pestis [5] it was greater than 38 µM; in data set [6], 333 µM; with Yersinia pestis [8], greater than 38 µM. In addition, in data set [4], the Ratio is reported as 16. Moreover, the CC50 at 24 h in data set [7] was 398 µM.

`COc1ccccc1NC(=S)N1N=C(c2ccc(O)cc2O)C[C@H]1c1ccc(O)cc1`: the results for the Ratio (in the data set with Yersinia pestis [1]; in data set [4]) were greater than 50 and 2, respectively. The pIC50 in data set [2] is 6.22; in data set [3] it was 4.10; with Yersinia pestis [5], 6.15; in data set [6], 3.81; in the data set on Yersinia pestis [8], less than 3.82. In addition, the MIC90 is 125 µM in data set [3], 3 µM with Yersinia pestis [5], 250 µM in data set [6] and greater than 150 µM with Yersinia pestis [8]. The CC50 at 24 h in data set [7] was 23 µM.

Consider `Oc1ccccc1C1=NN(C(=S)Nc2ccccc2)[C@H](c2ccco2)C1`, for which the Ratio with Yersinia pestis [1] was greater than 5; in data set [4], 1. Besides, the negative logarithm of the IC50 (pIC50) in data set [2] was 6.52; in data set [3], 4.14; in the data set with Yersinia pestis [5] it was 6.00; in data set [6], 4.14; in the data set on Yersinia pestis [8], less than 5.05. In addition, the MIC90 is 250 µM in data set [3], 2 µM with Yersinia pestis [5], 208 µM in data set [6] and greater than 9 µM in the data set on Yersinia pestis [8]. In data set [7], the CC50 at 24 h is 3 µM.

Consider `Oc1ccccc1[C@@H]1CC(c2ccccc2)=NN1C(=S)Nc1ccccc1`, for which the negative-log IC50 (pIC50) was less than 4.90 in data set [2]; 4.62 in data set [3]; less than 4.72 in the data set with Yersinia pestis [5]; 4.38 in data set [6]; less than 4.72 with Yersinia pestis [8]. Also, the MIC90 in data set [3] is 125 µM; in the data set with Yersinia pestis [5] it was greater than 19 µM; in data set [6], 167 µM; in the data set on Yersinia pestis [8] it was greater than 19 µM. In addition, the Ratio in data set [4] was 1. Also, the CC50 at 24 h in data set [7] was found to be 19 µM.

For the compound `Oc1ccc(C2=NN(C(=S)Nc3ccccc3)[C@H](c3ccc(O)cc3)C2)cc1`, the negative logarithm of the IC50 (pIC50) is less than 4.90 in data set [2]; 4.08 in data set [3]; less than 4.12 with Yersinia pestis [5]; 3.98 in data set [6]; less than 4.12 in the data set with Yersinia pestis [8]. Further, the MIC90 was 125 µM in data set [3], greater than 75 µM in the data set on Yersinia pestis [5], 250 µM in data set [6] and greater than 75 µM in the data set with Yersinia pestis [8]. For the same compound, the Ratio in data set [4] came to 2. The CC50 at 24 h in data set [7] turned out to be 248 µM.

Turning to `COc1cc([C@@H]2CC(c3ccc(O)cc3O)=NN2C(=S)Nc2ccccc2OC)ccc1O`, the pIC50 is 6.70 in data set [2]; 4.29 in data set [3]; 4.77 in the data set with Yersinia pestis [5]; 4.26 in data set [6]; less than 4.42 in the data set on Yersinia pestis [8]. In addition, the MIC90 in data set [3] was 125 µM; in the data set with Yersinia pestis [5], greater than 38 µM; in data set [6], 125 µM; with Yersinia pestis [8] it was greater than 38 µM. Moreover, in data set [4], the Ratio is 1. The CC50 at 24 h in data set [7] was determined as 26 µM.

As for `Oc1ccc([C@@H]2CC(c3ccccc3O)=NN2C(=S)Nc2ccccc2)cc1`, the pIC50 in data set [2] is 6.40; in data set [3], 5.52; in the data set on Yersinia pestis [5] it was less than 4.72; in data set [6] it was 5.40; with Yersinia pestis [8], less than 4.72. The MIC90 is 13 µM in data set [3], greater than 19 µM with Yersinia pestis [5], 12 µM in data set [6] and greater than 19 µM with Yersinia pestis [8]. Moreover, in data set [4], the Ratio is 1. Besides, the CC50 at 24 h in data set [7] was found to be 42 µM.

Take `COc1ccc(NC(=S)N2N=C(c3ccc(O)cc3O)C[C@H]2c2ccc(O)cc2)cc1`: the values for the Ratio (with Yersinia pestis [1]; in data set [4]) were greater than 30 and greater than 3, respectively. Also, the pIC50 in data set [2] was less than 4.90; in data set [3], 4.20; with Yersinia pestis [5], 6.40; in data set [6], 3.60; in the data set on Yersinia pestis [8] it was less than 3.82. Also, the MIC90 is 167 µM in data set [3], 5 µM with Yersinia pestis [5], greater than 500 µM in data set [6] and greater than 150 µM in the data set with Yersinia pestis [8]. For the same compound, in data set [7], the CC50 at 24 h was 62 µM.

`COc1ccc(NC(=S)N2N=C(c3ccccc3O)C[C@H]2c2ccccc2O)cc1`: the figures for the Ratio (with Yersinia pestis [1]; in data set [4]) were greater than 0.7 and greater than 4, respectively. Further, the pIC50 in data set [2] was 6.70; in data set [3], 4.55; in the data set on Yersinia pestis [5], 6.00; in data set [6], 3.78; with Yersinia pestis [8], less than 5.70. Also, the MIC90 in data set [3] is 63 µM; in the data set with Yersinia pestis [5] it was 3 µM; in data set [6], greater than 250 µM; with Yersinia pestis [8], greater than 2 µM. The CC50 at 24 h in data set [7] stood at 1 µM.

For the compound `CO[C@H]1/C=C/O[C@@]2(C)Oc3c(C)c(O)c4c(O)c(c(/C=N/N5CCN(C)CC5)c(O)c4c3C2=O)NC(=O)/C(C)=C\C=C\[C@H](C)[C@H](O)[C@@H](C)[C@@H](O)[C@@H](C)[C@H](OC(C)=O)[C@@H]1C` [RIFAMPIN], the MIC90 in data set [3] and in data set [6] was 0.008 µM each time. In data set [4], the Ratio came out at 1. Also, in data set [7], the CC50 at 24 h was 190 µM.

Values taken from ChEMBL document CHEMBL1144812, “Small molecules with structural similarities to siderophores as novel antimicrobials against Mycobacterium tuberculosis and Yersinia pestis” (Bioorg Med Chem Lett, 2008).
